Laboratory results taken from US6126909A, “Process and apparatus for the production of BI-212 and a use thereof” (Arch Development Corporation, priority 1999, dated 2000).

Legend:
[1] = Toxicity studies, intraperitoneal graded doses; assay type: in vivo, rabbit
Protocol: In vivo studies were conducted to determine the distribution of Bi-212 produced using the above-noted process and to compare the Bi-212 distribution to the distribution of Pb-212 ferrous hydroxide in colloidal form. The in vivo studies were conducted using white, female New Zealand rabbits weighing about 4.5 kilograms ([…]) each. Studies were also conducted using rabbits to determine the toxicity levels, e.g., the maximum tolerated dose. Efficacy studies were conducted using 25 gram (gm) female Swiss-Webster mice inoculated with Ehrlich-Lettre Ascites carcinoma cells.
The peritoneal cavities of rabbits were instilled with graded doses of Bi-212. The rabbits were followed until death or for up to three months after their blood counts normalized. The rabbits were necropsied at death or termination of the study and their organs were microscopically examined to determine the effect of the Bi-212 on healthy organs.

V-79 cells = test: In vitro irradiation survival (clonogenic), monolayer; assay type: cell-based, Chinese hamster; settings: V-79 monolayer
Protocol: (§1) In vitro studies were carried out using three well known cell lines, the cells from which were exposed to radiation from: (1) an X-ray source; (2) P-32 chromic phosphate; and (3) Bi-212 chloride. The three cell lines that were used are V-79, which is a Chinese hamster lung fibroblast, Ehrlich-Lettre Ascites carcinoma (ATCC CCL 77), which is an ascites producing -tumor, and NIH:OVCAR-3 (ATCC HTB 161), which is a human ovarian adenocarcinoma. These well known cell lines are predictive of what happens in vivo. The cells were grown as monolayers and into spheroid formations and subsequently irradiated, as described herein.
(§2) The V-79 cells were maintained under exponential growth conditions in minimal essential medium (MEM) supplemented with 10 percent fetal bovine serum. The Ehrlich-Lettre Ascites carcinoma cells were maintained in 90 percent NCTC 109 supplemented with 10 percent fetal bovine serum. The NIH:OVCAR-3 cells were maintained in RPMI 1640 and 10 percent fetal bovine serum.
(§3) Cells from each of the cell lines were irradiated by subjecting the cells to X-ray radiation, P-32, and Bi-212. The X-ray source that was used is a General Electric 250 kvp Maxitron, 26 […] (mA) (HVL 1.5 mm Cu) operated at a dose rate of 1.11 Greys per minute (Gy/min). The cells, in both monolayer and spheroid form were exposed at room temperature and then immediately plated for survival.
(§4) Cells in both monolayer and spheroid were exposed to P-32 chromic phosphate. The radiation dose to each sample was calculated as: […]
(§5) After exposure, the cells were washed in phosphate-buffered saline (PBS) and immediately plated for survival.
The cell lines were also irradiated using Bi-212. Bismuth-212 was eluted from a generator as described in the aforementioned patent to Atcher et al., which was a cation-exchange column supporting Ra-224, with 1 ml of 0.15 N HI, and the generator was purged with 2 ml of distilled deionized water. […] The filter was purged with 1 ml of distilled deionized water, and the radioactivity was assayed using a calibrated 3×3-in. […]
(§6) Cells were exposed over a period of four hours. The dose (D) per microCurie was calculated and corrected for decay as follows: [formula] where V=volume in milliliters, and […]
(§7) Following plating, survival measurements were taken for each of the irradiated cell samples. […] The plates were then stained with crystal violet and colonies greater than 50 cells were scored. The surviving fraction was then determined.
Intrinsic radiosensitivity (Do) was calculated from the survival curves. […] Relative biological effectiveness (RBE) was determined as the ratio of the absorbed dose of X-ray to that of alpha radiation to produce the same degree of biological effect.

[2] = system: NIH:OVCAR-3 cells (spheroids); test: In vitro irradiation survival, spheroids; assay type: cell-based, human; settings: OVCAR-3 spheroids
Protocol: as §1, §2
To initiate the formation of the spheroids, cells at a concentration of about 500,000 cells per flask were seeded onto petri dishes base-cooked with 1 percent agar MEM without serum. After spheroids having a size of about 20 micrometers (μm) formed, the spheroids were transferred to spinner bottles and maintained for two to three weeks at a temperature of 37° C. in a CO2 incubator until they grew to 10 to 1000 μm. Prior to irradiation, the spheroids were sized and separated using a spheroid separation column.
as §3, §4, §5
The cell lines were also irradiated using Bi-212. […] The filter was purged with 1 ml of distilled deionized water, and the radioactivity was assayed using a calibrated 3×3-in. […]
as §6, §7
Intrinsic radiosensitivity (Do) was calculated from the survival curves. […]

[3] = Retention after intraperitoneal injection in mice; assay type: in vivo, mouse
[4] = Solubility of Bi-212 at various pH values (0.22 μ filter); assay type: physicochemical
Protocol: The solubility was measured by passing the solution through a 0.22 μ Nalgene® filter and measuring the activity of the resulting solution and the activity of the filter.

In the case of `[212Bi]` [Bi-212, bismuth-212], the “Microscopic examination of organs” value ([1]; 60 mCi, three months after instillation) is reported as “only mild blunting of intestinal villi”, the “Histology, small and large intestines” value ([1]; 80 mCi) is reported as “marked individual cell necrosis of gland epithelium of the small and large intestines” and the Survival ([1]; 80 mCi) is reported as “survived about three days”. The Histology ([1]; 100 mCi) was “diffuse epithelial necrosis”, the Survival ([1]; 100 mCi) was “survived about three days” and the Mortality ([1]; doses greater than 60 mCi) was “death within three days”. The Maximum dose tolerated ([1]; rabbits, intraperitoneal) was 60 mCi, the “D0 (intrinsic radiosensitivity)” value (V-79 cells; dose increment reducing survival to 37 percent) was 0.77 Gy and the “Relative biological effectiveness (RBE)” value (V-79 cells; relative to X-ray) was 3.02. For the same compound, the “D0 (intrinsic radiosensitivity)” value ([2]; dose to 37 percent survival) was 0.55 Gy, the “Relative biological effectiveness (RBE)” value ([2]; relative to X-ray) was 2.81 and the Carcass ([3]; 1 min) was 88.3 % IA. The Urine ([3]; 1 min) was 0.025 % IA, the Carcass ([3]; 10 min) was 87.3 % IA and the Urine ([3]; 10 min) was 2.2 % IA. For the same compound, the Carcass ([3]; 16 min) was 66.8 % IA, the Stool ([3]; 16 min) was 0.20 % IA and the Urine ([3]; 16 min) was 2.9 % IA. For the same compound, the Carcass ([3]; 30 min) was 79.1 % IA, the Stool ([3]; 30 min) was 0.53 % IA and the Urine ([3]; 30 min) was 6.9 % IA. The Carcass ([3]; 61 min) was 68.5 % IA, the Stool ([3]; 61 min) was 1.3 % IA and the Urine ([3]; 61 min) was 15.9 % IA. It also gave a Carcass ([3]; 120 min) of 62.9 % IA, a Stool ([3]; 120 min) of 6.7 % IA and a Urine ([3]; 120 min) of 19.5 % IA. It also gave a Stool ([3]; 180 min) of 8.3 % IA, a Urine ([3]; 180 min) of 24.8 % IA and a Carcass ([3]; 180 min (3 hours)) of 61.4 % IA. The Maintained in solution ([4]; acidic pH) was “maintained in solution at an acidic pH value”, the Activity in solution ([4]; pH 6) was 5.55 mCi and the Activity on filter ([4]; pH 6) was 0.24 mCi. The “Percent activity in solution” value ([4]; pH 6) was 96%, the “Percent activity on filter” value ([4]; pH 6) was 4% and the Activity in solution ([4]; pH 7) was 3.24 mCi. The Activity on filter ([4]; pH 7) was 0.023 mCi, the “Percent activity in solution” value ([4]; pH 7) was 94% and the “Percent activity on filter” value ([4]; pH 7) was 6%. The Activity in solution ([4]; pH 8) was 1.90 mCi, the Activity on filter ([4]; pH 8) was 0.50 mCi and the “Percent activity in solution” value ([4]; pH 8) was 83%. For the same compound, the “Percent activity on filter” value ([4]; pH 8) was 17%, the Activity in solution ([4]; pH 9) was 0.65 mCi and the Activity on filter ([4]; pH 9) was 1.35 mCi. For the same compound, the “Percent activity in solution” value ([4]; pH 9) was 32%, the “Percent activity on filter” value ([4]; pH 9) was 68% and the “Solubility dependence on pH” value ([4]; radio-impurity-free solution) was “solubility increasing with a decrease in pH value”.
